Laboratory results as given in ChEMBL document CHEMBL3593219, “Sesquiterpenes with TRAIL-resistance overcoming activity from Xanthium strumarium” (Bioorg Med Chem, 2015).
Active and inactive are the calls of the source. The rule behind the calls is not given here.

Experiments:
AGS [1] = assay: Increase in caspase-3 protein expression in human AGS cells incubated for 24 hrs by Western blotting method; format: functional, cell-based
AGS [2] = assay: Increase in cleaved caspase-9 protein expression in human AGS cells at 4 to 12 uM s by Western blotting method; format: functional, cell-based
AGS [3] = assay: Increase in cleaved caspase-3 protein expression in human AGS cells at 16 uM incubated for 24 hrs in presence of 100 ng/ml TRAIL by Western blotting method relative to TRAIL alone; format: functional
AGS [4] = assay: Increase in cleaved caspase-3 protein expression in human AGS cells at 16 uM incubated for 24 hrs in presence of 100 ng/ml TRAIL by Western blotting method; format: functional
AGS [5] = assay: Increase in DR4 protein expression in human AGS cells incubated for 24 hrs by Western blotting method; format: functional, cell-based
AGS [6] = assay: Increase in cleaved caspase-8 protein expression in human AGS cells at 16 uM incubated for 24 hrs in presence of 100 ng/ml TRAIL by Western blotting method relative to TRAIL alone; format: functional
AGS [7] = assay: Increase in cleaved caspase-8 protein expression in human AGS cells at 16 uM incubated for 24 hrs in presence of 100 ng/ml TRAIL by Western blotting method; format: functional
AGS [8] = assay: Increase in cleaved caspase-9 protein expression in human AGS cells at 16 uM incubated for 24 hrs in presence of 100 ng/ml TRAIL by Western blotting method; format: functional
AGS [9] = assay: Increase in p53 protein expression in human AGS cells incubated for 24 hrs by Western blotting method; format: functional, cell-based
AGS [10] = assay: Increase in cleaved caspase-8 protein expression in human AGS cells incubated for 24 hrs by Western blotting method; format: functional, cell-based
AGS [11] = assay: Increase in Bax protein expression in human AGS cells at incubated for 24 hrs by Western blotting method; format: functional, cell-based
AGS [12] = assay: Increase in cleaved caspase-9 protein expression in human AGS cells at 16 uM incubated for 24 hrs in presence of 100 ng/ml TRAIL by Western blotting method relative to TRAIL alone; format: functional
AGS [13] = assay: Increase in cleaved caspase-9 protein expression in human AGS cells at 16 uM incubated for 24 hrs by Western blotting method; format: functional
AGS [14] = assay: Inhibition of TRAIL-resistance in human AGS cells assessed as inhibition of cell viability at 8 uM incubated for 24 hrs in presence of 100 ng/ml TRAIL by FMCA method relative to TRAIL alone; format: functional
AGS [15] = assay: Decrease in Bcl2 protein expression in human AGS cells incubated for 24 hrs by Western blotting method; format: functional, cell-based
AGS [16] = assay: Increase in cleaved caspase-3 protein expression in human AGS cells at 16 uM incubated for 24 hrs by Western blotting method; format: functional
AGS [17] = assay: Inhibition of TRAIL-resistance in human AGS cells assessed as inhibition of cell viability at 16 uM incubated for 24 hrs in presence of 100 ng/ml TRAIL by FMCA method relative to TRAIL alone; format: functional
AGS [18] = assay: Increase in cleaved caspase-8 protein expression in human AGS cells at 16 uM incubated for 24 hrs by Western blotting method; format: functional
AGS [19] = assay: Increase in CHOP protein expression in human AGS cells incubated for 24 hrs by Western blotting method; format: functional, cell-based
AGS [20] = assay: Inhibition of TRAIL-resistance in human AGS cells assessed as inhibition of cell viability at 24 uM incubated for 24 hrs in presence of 100 ng/ml TRAIL by FMCA method relative to TRAIL alone; format: functional
AGS [21] = assay: Increase in DR5 protein expression in human AGS cells incubated for 24 hrs by Western blotting method; format: functional, cell-based
AGS [22] = assay: Inhibition of TRAIL-resistance in human AGS cells assessed as inhibition of cell viability at 10 uM incubated for 24 hrs in presence of 100 ng/ml TRAIL by FMCA method relative to TRAIL alone; format: functional
AGS [23] = assay: Inhibition of TRAIL-resistance in human AGS cells assessed as inhibition of cell viability at 20 uM incubated for 24 hrs in presence of 100 ng/ml TRAIL by FMCA method relative to TRAIL alone; format: functional
AGS [24] = assay: Inhibition of TRAIL-resistance in human AGS cells assessed as inhibition of cell viability at 30 uM incubated for 24 hrs in presence of 100 ng/ml TRAIL by FMCA method relative to TRAIL alone; format: functional
HeLa = assay: Inhibition of TRAIL-resistance in human HeLa cells assessed as inhibition of cell viability at 4 to 12 uM incubated for 24 hrs in presence of 100 ng/ml TRAIL by FMCA method relative to TRAIL alone; format: functional, cell-based
AGS [25] = assay: Increase in DR4 protein expression in human AGS cells at 8 uM incubated for 3 to 12 hrs by Western blotting method; format: functional, cell-based; settings: TDE = time-dependent effect
AGS [26] = assay: Increase in cleaved caspase-9 protein expression in human AGS cells at 8 uM incubated for 24 hrs in presence of 100 ng/ml TRAIL by Western blotting method; format: functional
AGS [27] = assay: Increase in caspase-3 protein expression in human AGS cells at 8 uM incubated for 24 hrs in presence of 100 ng/ml TRAIL by Western blotting method; format: functional
AGS [28] = assay: Increase in caspase-3 protein expression in human AGS cells at 8 uM incubated for 24 hrs by Western blotting method; format: functional
AGS [29] = assay: Increase in DR5 protein expression in human AGS cells at 8 uM incubated for 3 to 12 hrs by Western blotting method; format: functional, cell-based; settings: TDE = time-dependent effect
DU-145 = assay: Inhibition of TRAIL-resistance in human DU145 cells assessed as inhibition of cell viability at 4 to 12 uM incubated for 24 hrs in presence of 100 ng/ml TRAIL by FMCA method relative to TRAIL alone; format: functional, cell-based
HEK293 = assay: Inhibition of TRAIL-resistance in HEK293 cells assessed as inhibition of cell viability at 4 to 8 uM incubated for 24 hrs in presence of 100 ng/ml TRAIL by FMCA method relative to TRAIL alone; format: cell-based; settings: human, hek293, 24 h
AGS [30] = assay: Increase in caspase-3 protein expression in human AGS cells at 8 uM incubated for 24 hrs in presence of 100 ng/ml TRAIL by Western blotting method relative to TRAIL alone; format: functional
MCF7 = assay: Inhibition of TRAIL-resistance in human MCF7 cells assessed as inhibition of cell viability at 4 to 12 uM incubated for 24 hrs in presence of 100 ng/ml TRAIL by FMCA method relative to TRAIL alone; format: functional, cell-based
AGS [31] = assay: Increase in cleaved caspase-8 protein expression in human AGS cells at 8 uM incubated for 24 hrs in presence of 100 ng/ml TRAIL by Western blotting method relative to TRAIL alone; format: functional
AGS [32] = assay: Inhibition of TRAIL-resistance in human AGS cells assessed as inhibition of cell viability at 12 uM incubated for 24 hrs in presence of 100 ng/ml TRAIL by FMCA method relative to TRAIL alone; format: functional
AGS [33] = assay: Increase in cleaved caspase-8 protein expression in human AGS cells at 8 uM incubated for 24 hrs in presence of 100 ng/ml TRAIL by Western blotting method; format: functional
AGS [34] = assay: Increase in cleaved caspase-9 protein expression in human AGS cells at 8 uM incubated for 24 hrs by Western blotting method; format: functional
AGS [35] = assay: Increase in cleaved caspase-9 protein expression in human AGS cells at 8 uM incubated for 24 hrs in presence of 100 ng/ml TRAIL by Western blotting method relative to TRAIL alone; format: functional
AGS [36] = assay: Increase in cleaved caspase-8 protein expression in human AGS cells at 8 uM incubated for 24 hrs by Western blotting method; format: functional
DLD-1 = assay: Inhibition of TRAIL-resistance in human DLD1 cells assessed as inhibition of cell viability at 4 to 12 uM incubated for 24 hrs in presence of 100 ng/ml TRAIL by FMCA method relative to TRAIL alone; format: functional, cell-based
AGS [37] = assay: Inhibition of TRAIL-resistance in human AGS cells assessed as inhibition of cell viability at 4 uM incubated for 24 hrs in presence of 100 ng/ml TRAIL by FMCA method relative to TRAIL alone; format: functional

SMILES	Activity (AGS [1])	Activity (AGS [2])	Activity (AGS [5])	Activity (AGS [9])	Activity (AGS [10])	Activity (AGS [11])	inhibition (INH) (AGS [14]) [%]	Activity (AGS [15])	inhibition (INH) (AGS [17]) [%]	Activity (AGS [19])	inhibition (INH) (AGS [20]) [%]	Activity (AGS [21])	inhibition (INH) (AGS [22]) [%]	inhibition (INH) (AGS [23]) [%]	inhibition (INH) (AGS [24]) [%]	also measured
COc1ccc(C(=O)O[C@@H]2C=C(C)CC[C@@]3(O)[C@@H](C(C)C)CC[C@]23C)cc1	Dose-dependent effect	Dose-dependent effect	Dose-dependent effect	Dose-dependent effect	Dose-dependent effect	Dose-dependent effect	15	Dose-dependent effect	61	Dose-dependent effect	56	Dose-dependent effect	–	–	–	Activity (AGS [3]): 70%; Activity (AGS [4]): 100%; Activity (AGS [6]): 50%; Activity (AGS [7]): 100%; Activity (AGS [8]): 100%; Activity (AGS [12]): 20%; Activity (AGS [13]): 15%; Activity (AGS [16]): 5%; Activity (AGS [18]): 10%
C=C1C(=O)O[C@H]2C[C@H](C)C(CCC(C)O)=CC[C@H]12 (stereo partly drawn)	–	–	–	–	–	–	23	–	48	–	35	–	–	–	–	–
CC(=O)CCC1=CC[C@H]2[C@H](C[C@@H]1C)OC(=O)[C@H]2C	–	–	–	–	–	–	–	–	–	–	–	–	19	61	36	–
C=C1C(=O)O[C@H]2C[C@H](C)C(CCC(C)=O)=CC[C@H]12	Dose-dependent effect	Dose-dependent effect	Dose-dependent effect	Dose-dependent effect	Dose-dependent effect	Dose-dependent effect	44	Dose-dependent effect	–	Dose-dependent effect	–	Dose-dependent effect	–	–	–	inhibition (HeLa): Active; Activity (AGS [25]): tde; Activity (AGS [26]): 100%; Activity (AGS [27]): 100%; Activity (AGS [28]): 25%; Activity (AGS [29]): tde; inhibition (DU-145): Active; Activity (HEK293): Non-toxic; Activity (AGS [30]): 65%; inhibition (MCF7): Active; Activity (AGS [31]): 20%; inhibition (INH) (AGS [32]): 24%; Activity (AGS [33]): 100%; Activity (AGS [34]): 20%; Activity (AGS [35]): 20%; Activity (AGS [36]): 10%; inhibition (DLD-1): Active; inhibition (INH) (AGS [37]): 32%
CC(O)CCC1=CC[C@H]2[C@H](C[C@@H]1C)OC(=O)[C@H]2C (stereo partly drawn)	–	–	–	–	–	–	–	–	–	–	–	–	30	51	34	–
